From ChEMBL document CHEMBL1201862, “PubChem BioAssay data set” (2004) come the findings set out here.

The subject of series [1] is H4. In words: Luminescence Cell-Based Dose Response HTS to Identify Activators of 5'UTR Stem-Loop Driven Prion Protein mRNA Translation in H4 Neuroglioblastoma Cells. [Related pubchem assays: 1829 (Project Summary), 1814 (Primary HTS)]. It is filed as functional. The conditions noted are these: Homo sapiens.
The target of series [2] is T1, Heat shock factor protein 1 (Mus musculus, UniProt P38532).
T1 sequence (P38532 whole entry): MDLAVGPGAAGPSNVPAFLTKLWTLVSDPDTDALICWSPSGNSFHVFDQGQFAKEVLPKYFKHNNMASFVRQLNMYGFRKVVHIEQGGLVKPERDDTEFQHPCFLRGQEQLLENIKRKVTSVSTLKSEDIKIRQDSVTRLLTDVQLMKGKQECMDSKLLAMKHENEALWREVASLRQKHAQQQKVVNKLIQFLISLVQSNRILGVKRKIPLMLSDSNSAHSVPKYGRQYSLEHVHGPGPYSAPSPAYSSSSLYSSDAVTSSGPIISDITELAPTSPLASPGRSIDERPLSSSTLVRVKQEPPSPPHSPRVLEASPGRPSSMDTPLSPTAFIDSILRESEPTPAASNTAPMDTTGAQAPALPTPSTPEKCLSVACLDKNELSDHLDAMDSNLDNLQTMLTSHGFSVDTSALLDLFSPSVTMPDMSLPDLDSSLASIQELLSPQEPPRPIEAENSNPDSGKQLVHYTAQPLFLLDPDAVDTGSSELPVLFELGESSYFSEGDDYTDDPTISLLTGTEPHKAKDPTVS
In words: inhibition of MG132-induced HSE-luciferase signal, confirmation, cell-based, NIH3T3, luminescence, dose retest (AID 2382).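 Also: NIH3T3 fibroblasts with HSF1-driven luciferase reporter stressed by proteasome inhibitor MG132; luminescence from HSF1-driven luciferase expression after 8 hours of MG132 stress.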 Format: functional.

Series [3] has as its target Cytochrome P450 2C9 (Homo sapiens, UniProt P11712).
Series [4] in a line: Luminescence Cell-Based Dose Confirmation HTS to Identify Activators of 5'UTR Stem-Loop Driven Alpha-Synuclein mRNA Translation in H4 Neuroglioblastoma Cells. [Related pubchem assays: 1829 (Project Summary), 1814 (Primary HTS)]. It is filed as functional.
Series [5] is described as follows: Luminescence Cell-Based Dose Response HTS to Identify Activators of Luciferase Translation or Activity in H4 […] Cells. [Related pubchem assays: 1829 (Project Summary), 1814 (Primary HTS)]. Format: functional.
Series [6] has as its target Glyceraldehyde-3-phosphate dehydrogenase (Homo sapiens, UniProt P04406).
The target of series [7] is DNA dC->dU-editing enzyme APOBEC-3G (Homo sapiens, UniProt Q9HC16). The series is described as follows: Dose Response confirmation of small molecule APOBEC3G DNA Deaminase Inhibitors via a fluorescence-based single-stranded DNA deaminase assay. [Related pubchem assays (depositor defined):AID493012, AID493028]. Format: functional.
DNA dC->dU-editing enzyme APOBEC-3G, sequence (Q9HC16 whole entry): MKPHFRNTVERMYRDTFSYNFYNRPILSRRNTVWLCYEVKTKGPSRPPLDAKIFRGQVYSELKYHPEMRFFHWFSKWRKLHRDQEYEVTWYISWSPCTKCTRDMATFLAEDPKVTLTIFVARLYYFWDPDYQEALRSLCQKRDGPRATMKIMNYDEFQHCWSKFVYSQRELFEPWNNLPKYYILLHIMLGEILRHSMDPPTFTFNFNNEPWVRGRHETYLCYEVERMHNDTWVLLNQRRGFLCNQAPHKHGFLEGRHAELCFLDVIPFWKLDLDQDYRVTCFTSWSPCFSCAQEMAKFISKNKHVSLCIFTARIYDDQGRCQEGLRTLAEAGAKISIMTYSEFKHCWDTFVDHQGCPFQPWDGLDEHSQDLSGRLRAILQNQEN
For series [8], the target named is T2, Caspase-6 (Homo sapiens, UniProt P55212).
T2 sequence (P55212 whole entry): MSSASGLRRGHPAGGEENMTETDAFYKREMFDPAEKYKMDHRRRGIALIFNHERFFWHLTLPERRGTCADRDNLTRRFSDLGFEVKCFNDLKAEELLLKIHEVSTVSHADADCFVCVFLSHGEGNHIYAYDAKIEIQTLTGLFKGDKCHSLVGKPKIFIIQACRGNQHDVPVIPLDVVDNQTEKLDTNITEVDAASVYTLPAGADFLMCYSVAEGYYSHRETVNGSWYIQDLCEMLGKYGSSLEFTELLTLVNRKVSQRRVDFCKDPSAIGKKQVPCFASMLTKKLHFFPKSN
The series is described as follows: human caspase-6 inhibitors, dose response, biochemical, VEID-R110 fluorescence, cherry-pick (AID 720632).

In series [9] the target is T3, Carboxy-terminal domain RNA polymerase II polypeptide A small phosphatase 1 (Homo sapiens, UniProt Q9GZU7).
T3 sequence (Q9GZU7 whole entry): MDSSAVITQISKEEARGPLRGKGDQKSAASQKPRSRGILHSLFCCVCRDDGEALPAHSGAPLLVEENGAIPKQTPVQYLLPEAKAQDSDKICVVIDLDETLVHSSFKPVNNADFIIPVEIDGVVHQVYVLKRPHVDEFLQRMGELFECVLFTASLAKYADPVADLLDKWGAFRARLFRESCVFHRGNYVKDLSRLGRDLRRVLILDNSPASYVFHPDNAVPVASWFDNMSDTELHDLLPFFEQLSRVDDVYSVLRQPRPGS
The series is described as follows: inhibitors of CTDSP1, concentration-response testing, biochemical assay, absorbance-based, actives from ultra-high-throughput screening (AID 540297). Format: functional.

Series [10] addresses T4, Replicative DNA helicase DnaB (Mycobacterium tuberculosis, UniProt P9WMR3).
T4 sequence (P9WMR3 whole entry): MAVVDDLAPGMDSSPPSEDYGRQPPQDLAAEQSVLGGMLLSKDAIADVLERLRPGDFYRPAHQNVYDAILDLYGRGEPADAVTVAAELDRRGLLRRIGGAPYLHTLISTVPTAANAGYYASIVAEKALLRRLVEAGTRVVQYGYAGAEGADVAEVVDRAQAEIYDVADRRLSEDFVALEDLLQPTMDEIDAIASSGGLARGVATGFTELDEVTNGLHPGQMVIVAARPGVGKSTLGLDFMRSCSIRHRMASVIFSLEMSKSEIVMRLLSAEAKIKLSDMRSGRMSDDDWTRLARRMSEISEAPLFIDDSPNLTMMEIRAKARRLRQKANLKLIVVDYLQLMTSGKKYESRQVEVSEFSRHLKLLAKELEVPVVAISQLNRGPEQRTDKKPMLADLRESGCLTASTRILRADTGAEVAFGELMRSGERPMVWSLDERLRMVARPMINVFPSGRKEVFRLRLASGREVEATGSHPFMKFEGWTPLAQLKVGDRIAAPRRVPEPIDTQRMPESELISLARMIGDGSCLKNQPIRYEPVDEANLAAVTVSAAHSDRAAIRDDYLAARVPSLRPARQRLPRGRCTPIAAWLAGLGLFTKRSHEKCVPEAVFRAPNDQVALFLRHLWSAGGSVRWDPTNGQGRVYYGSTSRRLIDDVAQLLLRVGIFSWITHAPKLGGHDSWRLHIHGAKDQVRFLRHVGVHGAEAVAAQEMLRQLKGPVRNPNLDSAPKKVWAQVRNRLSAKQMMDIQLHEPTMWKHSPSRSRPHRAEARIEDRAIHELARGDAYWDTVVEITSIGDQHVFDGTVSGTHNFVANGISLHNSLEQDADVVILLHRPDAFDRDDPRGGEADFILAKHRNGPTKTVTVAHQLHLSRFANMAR
In words: DnaB intein splicing inhibitors, dose response, biochemical, cell-free fluorescence (AID 449749). It is filed as functional.

Series [11] deals with T5, Protein RecA (Mycobacterium tuberculosis, UniProt P9WHJ3).
T5 sequence (P9WHJ3 whole entry): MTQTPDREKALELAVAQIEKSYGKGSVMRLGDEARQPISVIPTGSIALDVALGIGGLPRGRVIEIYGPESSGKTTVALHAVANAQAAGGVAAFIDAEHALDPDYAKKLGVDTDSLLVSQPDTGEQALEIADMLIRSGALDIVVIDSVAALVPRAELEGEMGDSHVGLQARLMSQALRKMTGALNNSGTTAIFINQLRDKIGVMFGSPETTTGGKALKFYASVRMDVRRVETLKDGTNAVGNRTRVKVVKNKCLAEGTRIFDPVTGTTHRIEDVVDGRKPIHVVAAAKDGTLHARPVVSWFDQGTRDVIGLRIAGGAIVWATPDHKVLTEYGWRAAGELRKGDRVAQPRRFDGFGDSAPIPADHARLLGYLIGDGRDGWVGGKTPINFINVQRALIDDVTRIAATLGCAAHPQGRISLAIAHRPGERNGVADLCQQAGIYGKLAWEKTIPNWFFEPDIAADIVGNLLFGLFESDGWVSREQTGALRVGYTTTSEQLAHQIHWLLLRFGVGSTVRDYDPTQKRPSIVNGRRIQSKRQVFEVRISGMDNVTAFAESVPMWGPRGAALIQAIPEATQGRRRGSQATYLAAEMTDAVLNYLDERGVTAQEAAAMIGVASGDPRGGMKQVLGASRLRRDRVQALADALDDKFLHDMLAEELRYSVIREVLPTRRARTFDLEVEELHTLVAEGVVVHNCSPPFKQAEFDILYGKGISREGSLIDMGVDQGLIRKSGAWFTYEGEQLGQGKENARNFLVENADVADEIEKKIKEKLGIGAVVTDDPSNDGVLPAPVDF
The series is described as follows: Fluorescence Cell-Free Homogeneous Dose Retest to Identify Inhibitors of RecA-Intein Splicing Activity. [Related pubchem assays (depositor defined):AID2097, AID2223, AID489010, AID492950]. Format: functional.

Series [12] has as its target T6, Polyadenylate-binding protein 1 (Homo sapiens, UniProt P11940). The series is described as follows: PABP1 MLLE–PAM2 binding inhibitor potency, dose response, biochemical, fluorescence polarization, FITC-PAM2 peptide (AID 602259). It is filed as functional. The following applies: read-out: IC50_Mean. For orientation: Polarisation of emitted light reports the rotation of a fluorescent probe.

Series [13] addresses T6, Polyadenylate-binding protein 1. In words: PABP1 MLLE–PAM2 interaction inhibitors, dose response, miRNA deadenylation inhibitor project, biochemical, fluorescence polarization, Cy5-PAM2 peptide, secondary (AID 602260). Format: functional. The conditions noted are these: read-out: IC50_Mean.
A short description of series [14]: inhibitors of HIV Env-driven cell fusion, dose response, cherry-pick (AID 652057). Format: functional, cell-based.
A short description of series [15]: inhibitors of clade B AD8 Env fusion, dose response, cell-based, cherry-pick (AID 652062).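 Also: luciferase signal from cell-cell fusion driven by HIV-1 clade B AD8 Env; potency is for inhibitors of fusion seen as a drop in luminescence.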 Format: functional.
Series [16] is described as follows: ZM109 Env clade C HIV-1 fusion inhibitors, dose response, HeLa effector, CEM target cells, luciferase, cherry-pick (AID 652058). Format: functional, cell-based.
In series [17] the target is Cytochrome P450 3A4 (Homo sapiens, UniProt P08684).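 Also: CYP3A4 tested as one member of a cytochrome P450 panel screen.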
Cytochrome P450 3A4, sequence (P08684 whole entry): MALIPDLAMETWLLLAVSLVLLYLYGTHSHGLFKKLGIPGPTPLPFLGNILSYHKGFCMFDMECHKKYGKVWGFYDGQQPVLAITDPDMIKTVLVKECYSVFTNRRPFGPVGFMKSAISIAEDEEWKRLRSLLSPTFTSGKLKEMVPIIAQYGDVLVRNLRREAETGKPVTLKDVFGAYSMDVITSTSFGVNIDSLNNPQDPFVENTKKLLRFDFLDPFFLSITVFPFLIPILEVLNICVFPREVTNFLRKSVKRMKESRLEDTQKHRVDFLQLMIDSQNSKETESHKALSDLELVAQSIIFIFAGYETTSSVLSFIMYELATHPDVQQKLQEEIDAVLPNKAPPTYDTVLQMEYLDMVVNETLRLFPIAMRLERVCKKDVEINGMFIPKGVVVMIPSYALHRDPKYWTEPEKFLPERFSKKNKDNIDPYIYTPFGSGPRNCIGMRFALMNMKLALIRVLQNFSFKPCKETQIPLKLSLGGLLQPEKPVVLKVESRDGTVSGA
For series [18], the target named is Cytochrome P450 2C19 (Homo sapiens, UniProt P33261). In words: Cytochrome panel assay with activity outcomes. Panel member name: p450-cyp2c19 Compounds with AC50 equal or less than 10 uM are considered active. It is filed as functional.
Cytochrome P450 2C19, sequence (P33261 whole entry): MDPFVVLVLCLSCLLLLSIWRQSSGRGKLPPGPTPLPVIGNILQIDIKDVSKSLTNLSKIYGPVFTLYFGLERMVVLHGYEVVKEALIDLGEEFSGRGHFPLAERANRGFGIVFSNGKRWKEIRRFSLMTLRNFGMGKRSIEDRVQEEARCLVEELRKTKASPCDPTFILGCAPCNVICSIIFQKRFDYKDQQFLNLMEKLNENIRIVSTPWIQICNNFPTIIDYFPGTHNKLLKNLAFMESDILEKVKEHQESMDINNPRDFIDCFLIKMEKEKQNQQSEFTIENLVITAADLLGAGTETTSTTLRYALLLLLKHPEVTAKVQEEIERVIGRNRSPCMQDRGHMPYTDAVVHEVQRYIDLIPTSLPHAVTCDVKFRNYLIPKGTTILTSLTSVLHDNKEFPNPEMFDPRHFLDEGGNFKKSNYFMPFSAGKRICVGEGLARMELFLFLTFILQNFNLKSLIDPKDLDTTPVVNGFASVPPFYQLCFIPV

The source made the active and inactive calls. A value given as a limit tells only on which side of the number the result lay.

Cytochrome P450 2C9, sequence (P11712 whole entry): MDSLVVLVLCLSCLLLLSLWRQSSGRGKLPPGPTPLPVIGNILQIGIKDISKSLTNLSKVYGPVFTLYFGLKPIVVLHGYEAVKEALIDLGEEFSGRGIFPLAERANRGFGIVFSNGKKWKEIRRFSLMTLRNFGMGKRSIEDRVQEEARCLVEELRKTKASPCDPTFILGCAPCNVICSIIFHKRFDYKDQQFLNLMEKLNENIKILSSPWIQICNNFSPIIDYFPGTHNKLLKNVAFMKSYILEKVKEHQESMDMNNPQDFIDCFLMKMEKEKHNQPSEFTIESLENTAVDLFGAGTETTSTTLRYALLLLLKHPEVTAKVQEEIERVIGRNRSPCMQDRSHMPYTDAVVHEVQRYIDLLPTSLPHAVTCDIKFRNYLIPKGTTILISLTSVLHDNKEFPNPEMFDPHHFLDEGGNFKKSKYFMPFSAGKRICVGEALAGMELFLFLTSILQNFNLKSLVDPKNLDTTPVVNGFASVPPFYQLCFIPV
Glyceraldehyde-3-phosphate dehydrogenase, sequence (P04406 whole entry): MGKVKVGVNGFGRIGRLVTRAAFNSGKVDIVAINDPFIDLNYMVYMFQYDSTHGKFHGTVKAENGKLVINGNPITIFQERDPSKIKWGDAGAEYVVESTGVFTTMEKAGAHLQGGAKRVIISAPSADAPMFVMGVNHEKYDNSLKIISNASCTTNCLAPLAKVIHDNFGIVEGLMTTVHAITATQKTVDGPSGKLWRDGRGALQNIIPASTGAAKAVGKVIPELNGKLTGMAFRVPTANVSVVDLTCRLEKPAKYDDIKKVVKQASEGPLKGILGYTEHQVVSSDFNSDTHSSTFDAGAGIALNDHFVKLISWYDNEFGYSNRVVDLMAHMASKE
T6 sequence (P11940 whole entry): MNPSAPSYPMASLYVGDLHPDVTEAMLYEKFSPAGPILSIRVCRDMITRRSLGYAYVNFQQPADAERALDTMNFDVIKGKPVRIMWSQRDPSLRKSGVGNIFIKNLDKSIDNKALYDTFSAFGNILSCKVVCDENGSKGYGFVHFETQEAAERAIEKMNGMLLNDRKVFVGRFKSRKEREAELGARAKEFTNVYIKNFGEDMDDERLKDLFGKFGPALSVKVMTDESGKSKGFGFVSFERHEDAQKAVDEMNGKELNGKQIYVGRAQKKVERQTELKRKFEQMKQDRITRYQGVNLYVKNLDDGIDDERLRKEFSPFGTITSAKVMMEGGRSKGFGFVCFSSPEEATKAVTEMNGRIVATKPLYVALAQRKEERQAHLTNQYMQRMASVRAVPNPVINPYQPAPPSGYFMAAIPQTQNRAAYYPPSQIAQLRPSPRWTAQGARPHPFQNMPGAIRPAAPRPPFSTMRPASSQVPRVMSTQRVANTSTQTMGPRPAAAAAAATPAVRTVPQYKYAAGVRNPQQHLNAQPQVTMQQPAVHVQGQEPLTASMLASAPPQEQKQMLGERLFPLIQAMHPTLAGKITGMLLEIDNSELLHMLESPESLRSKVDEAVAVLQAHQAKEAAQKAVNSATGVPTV

Usually EC50 stands for the concentration needed to bring the measured effect to its halfway point. For orientation: AC50 means the concentration giving half of the maximal activity seen. As to `COc1ccccc1C(=O)NC(=S)N1CCCc2ccccc21`, the EC50 in [1] was 31.6 µM (active); in [2] it was 16.2 µM (active); in series [4] it was 29.9 µM (active); in [5] it was 9.63 µM (active). For the same compound, the AC50 result in series [3] is “inconclusive”.
Regarding `O=C1C(Cl)=C(N2CCN(Cc3ccc4c(c3)OCO4)CC2)C(=O)N1c1ccc(C(F)(F)F)cc1`, in series [6], the IC50 is > 50 µM (inconclusive).
In the case of `COc1ccc(NC(=S)c2ccc3ccccc3n2)cc1`, in series [7], the IC50 was 66.5 µM (active).
Consider `Cc1ccc(S(=O)(=O)N2CCN(C(=O)C3COc4ccccc4O3)CC2)cc1C` (centres undefined), for which the AC50 entry in [3] is given as “inconclusive”.
Turning to `O=C(O)/C(=C\c1cccc([N+](=O)[O-])c1)c1ccc(S(=O)(=O)N2CCCCC2)s1`, the AC50 in series [8] was 13.9 µM (active). Moreover, the IC50 in [9] was 9.53 µM (active).
Take `CC(=O)c1c(Cl)nc2cccc3c2c1-c1ccccc1C3=O`: the AC50 in series [10] was > 380 µM (inactive). In addition, the EC50 in [11] is 0.297 µM (inconclusive). For the same compound, the values for the IC50 in series [12] and in [13] were 55.6 µM (inactive) and > 66 µM (inactive), respectively.
As to `CC(C)Cn1c(S)nnc1-c1ccc(F)cc1`, the IC50 in series [7] was 9.54 µM (active).
As to `O=S(=O)(Nc1ccccc1Cl)c1cccc2nsnc12`, in [8], the AC50 was 25.9 µM (active). The IC50 in series [9] was 11.2 µM (active).
On to `C=CCc1cccc2cc(C(=O)Nc3cccc(C(=O)O)c3)c(=O)oc12`, for which the IC50 in series [6] is given as > 100 µM (not active).
As to `Cc1ccc(S(=O)(=O)Nc2csc(C)c2C(=O)O)cc1`, the AC50 in series [8] was 4.99 µM (active). The IC50 in series [9] is 3.94 µM (active).
For the compound `C[C@H](CO)N1C[C@H](C)[C@H](CN(C)S(=O)(=O)c2ccc(F)cc2)Oc2cc(Br)ccc2S1(=O)=O`, the AC50 is 1.5 µM (active) in [14], 4.74 µM (active) in [15] and 1.13 µM (active) in [16].
For `C[C@@H]1CN([C@@H](C)CO)C(=O)c2cccc(NC(=O)C3CCCCC3)c2O[C@H]1CN(C)Cc1ccccc1` the same measures were 39.6 µM (active), 22.1 µM (active) and 10.8 µM (active).
For `CCCC#Cc1ccc2c(c1)O[C@H](CN(C)S(=O)(=O)c1cccc(F)c1)[C@H](C)CN([C@@H](C)CO)S2(=O)=O` the same measures were 25 µM (active), 25.9 µM (active) and 15.2 µM (active).
In the case of `CO[C@H]1CN(C)C(=O)c2ccc(NS(=O)(=O)c3cccc(Cl)c3)cc2OC[C@@H](C)NC[C@H]1C`, the AC50 in series [8] is 19.7 µM (active).
Regarding `CCCCN1CCC(COC(=O)c2cc(Cl)c(N)c3c2OCCO3)CC1`, the AC50 result in series [3] is “inconclusive”; in series [17], 3.16 µM (inconclusive).
Take `Cn1cnc(CCN)c1` [N-METHYLHISTAMINE]: the AC50 result in series [18] and in series [3] was “inconclusive” each time.
